{
  "source": "patent US11578049B2",
  "about": "“Benzoic acid compound and method for preparing the same” (Henan Genuine Biotech Co., Ltd., priority 2018, dated 2023)",
  "key": {"[1]": {"tested_on": "rats exposed to cerebral ischemia and reperfusion", "test": "Cerebral blood flow in rats exposed to cerebral ischemia and reperfusion (tMCAO), laser Doppler", "assay_type": "in vivo, Sprague Dawley (SD) rats", "conditions": "for Reperfusion/Postoperative (cerebral blood flow recovery): 2 hours ischemia, 3 mg/kg iv immediately after reperfusion; for Postoperative/Preoperative (cerebral blood flow): blood flow immediately after initiation of ischemia relative to before the operation, drug 3 mg/kg iv given immediately after reperfusion", "experimental": "(§1) 1.2 Experimental procedure: Male Sprague Dawley (SD) rats was subjected to operation after experimental adaption for 5-7 days, with a weight of 200-250 g. The rats were anesthetized by intraperitoneal injection of 0.35 mL/100 g 10% chloral hydrate, and positioned on a temperature-controlled, operating surface. The common carotid artery was isolated from surrounding nerves to the bifurication between the external carotid artery and the internal carotid artery. The external carotid artery was then isolated. A sterile middle cerebral artery occlusion (MCAO) suture was advanced through external carotid artery into the internal carotid artery (about 18 mm±0.5 mm from the point of the carotid bifurication), effectively occluding the middle cerebral artery. The suture was withdrawn after 2 hours ischemic period to simulate clinical reperfusion. All rats were scored according to Longa scoring system, in which the rats with a total score less than 1 were withdrawn. The rats were kept on a heating blanket and allowed to recover from anesthesia. A neurobehavioral examination was performed at 24 h after awakening. Blood was drawn from each rat under anesthesia, collected in a tube containing K2-EDTA as anticoagulant for stabilizing the blood samples, centrifuged to separate supernatant from precipitate, and stored at […]. Then the rats were euthanized. The brains were cut into slices, stained with 2,3,5-triphenyltetrazolium chloride (TTC), and used to determine the infarct area. The experiment was complete within 3 days, with 3-4 rats per group daily.\n1.3 Intraoperative monitoring: Transcranial measurement of cerebral blood flow was made using […] at three points, namely before the operation, immediately after the initiation of ischemia, and immediately after reperfusion.\n(§2) 1.7 Drug preparation: The drugs to be tested were accurately weighed, dissolved in physiological saline to give a final concentration of 1.5 mg/mL.\n(§3) 1.8 Administration method: The drugs were removed from the refrigerator and […] to room temperature before the rats were dosed. The dosing volume was 2 mL/kg.\n(§4) All data was imported into an Excel worksheet, and expressed as mean±standard error of the mean. Statistical significance was determined by one-way ANOVA with Dunnett's multiple comparison test (*P<0.05, **P<0.01)."}, "[2]": {"test": "Metabolic stability measured in human liver microsomes", "conditions": "for half-life at 2 μg/mL: human, pH 7.4; for t1/2 (elimination half-life): human liver microsomes 1.0 mg/ml, compound 2 μg/mL, NADPH 2 mM, pH 7.4, 37° C.", "protocol": "(§5) 1000 μL of a reaction system contained butylphthalide compounds (2 μg/mL), human liver microsomes (1.0 mg/ml), NADPH (2 mM) and phosphate buffer (100 mM, pH=7.4). […] The human liver microsomes were pre-incubated with MTB compound series for 5 min at 37° C. water bath in a phosphate buffer. The reaction mixture was initiated by an addition of NADPH and incubated for 0, 5, 10, 20, 30, 40, 60 and 120 minutes. To the resulting mixture cooled in an ice bath, was added 50 μL of internal standard solution and 150 μL of frozen methanol to terminate the reaction, then followed by LC/MS/MS detection with reference to 2.1).\n(§6) The concentrations of the MTB compound series are determined on a standard curve obtained by plotting time versus concentration using the Pharmacokinetic software DAS 3.0, and the elimination half-life (t1/2) was determined from the concentration-time plots."}, "[3]": {"test": "Physical properties of the salts (water absorption)", "assay_type": "physicochemical", "conditions": "solid salt", "text": "5. The type of the salt of the compound 5 affects its physical properties. […] In addition, the excess alkali leads to the closed-loop reaction between hydroxyl group and fluorine atom. Potassium hydroxide contacts the compound 12 to yield a potassium salt which is not a solid. […] Therefore, high-purity of potassium salt and sodium salt products are not easy to obtain in this disclosure, which is unfavorable to large-scale production. Therefore, the following compounds are also included in the present invention: […]"}, "[4]": {"test": "in vivo", "conditions": "mouse", "protocol": "(§7) The drugs were diluted in the water to prepare different concentration ranges per each drug, and injected via tail vein into the mice, respectively. Mortality was determined and LD50 (median lethal dose) value was calculated."}, "[5]": {"tested_on": "mice", "conditions": "for median lethal dose: acute toxicity test", "protocol": "as §7"}, "[6]": {"tested_on": "rats exposed to cerebral ischemia and reperfusion", "test": "Infarct area of rats exposed to cerebral ischemia and reperfusion (tMCAO), TTC staining", "assay_type": "in vivo, Sprague Dawley (SD) rats", "conditions": "3 mg/kg iv immediately after reperfusion; for Cerebral infarction ratio: TTC, infarct area / total brain area; for Percentage inhibition of cerebral infarction: versus model group", "experimental": "as §1, §2, §3\n1.9.2 Cerebral infarction ratio: The rats were euthanized with chloral hydrate (330 mg/kg anesthesia), given by CO2 inhalation, and blood was drawn by cardiac puncture. The brains were removed from the skull and cut into 2 mm coronal slices using a rat brain matrix. Each slice was stained with 1% TTC at 37° C. for 5 minutes, protected from light, and were photographed. The ratio of infarct area was then determined using an image analysis software Image Pro Plus 6.0. The infarct areas were summed and divided by total brain area to yield the ratio of infarct area.\nas §4"}, "[7]": {"test": "in vitro", "conditions": "human, microsomes, pH 7.4", "protocol": "as §5, §6"}, "[8]": {"conditions": "text: recovery relative to preoperative, 3 mg/kg"}},
  "note": "Several values for one entry are separate records, joined by “and”; a condition that tells them apart may be missing. Equal entries are not always repeated.",
  "data": [
    {"smiles": "O=C([O-])c1cc(Br)ccc1C(O)CCC1CC1.[Na+]", "note": "(centres unmarked) [Compound 14]", "values": [
      {"measurement": "Reperfusion/Postoperative (cerebral blood flow recovery)", "setting": "[1]; recovery relative to preoperative", "value": 88.3, "unit": "%"},
      {"measurement": "Postoperative/Preoperative (cerebral blood flow)", "setting": "[1]", "value": 13.5, "unit": "%"},
      {"measurement": "half-life at 2 μg/mL", "setting": "[2]; human liver microsomes", "value": 2.44, "unit": "h"}
    ]},
    {"smiles": "O=C([O-])c1cc(Br)ccc1C(O)CCCCF.[Na+]", "note": "(centres unmarked) [Compound 15]", "values": [
      {"measurement": "water absorption in the air", "setting": "[3]", "value": "easy to absorb water in the air"},
      {"measurement": "LD50", "setting": "[4]", "value": 1040, "unit": "mg/kg"},
      {"measurement": "Reperfusion/Postoperative (cerebral blood flow recovery)", "setting": "[1]; [8]", "value": 95.6, "unit": "%"},
      {"measurement": "Reperfusion/Postoperative (cerebral blood flow recovery)", "setting": "[1]; text: recovery relative to preoperative, listed as compound 15, 3 mg/kg", "value": "95.3% and 95.6%"},
      {"measurement": "Postoperative/Preoperative (cerebral blood flow)", "setting": "[1]", "value": 16.8, "unit": "%"},
      {"measurement": "median lethal dose", "setting": "[5]", "value": 1036, "unit": "mg"},
      {"measurement": "Cerebral infarction ratio", "setting": "[6]; 3 mg/kg", "value": 12.0, "unit": "%"},
      {"measurement": "Cerebral infarction ratio", "setting": "[6]; listed as compound 15, 3 mg/kg", "value": 12.0, "unit": "%"},
      {"measurement": "Percentage inhibition of cerebral infarction", "setting": "[6]; 3 mg/kg", "value": 75.3, "unit": "%"},
      {"measurement": "Percentage inhibition of cerebral infarction", "setting": "[6]; listed as compound 15, 3 mg/kg", "value": 75.3, "unit": "%"},
      {"measurement": "half-life at 2 μg/mL", "setting": "[2]; microsomes", "value": 19.1, "unit": "h"}
    ]},
    {"smiles": "O=C(O)c1cc(Br)ccc1C(O)CCCCF", "note": "(centres unmarked) [Compound 17]", "values": [
      {"measurement": "water absorption in the air", "setting": "[3]", "value": "no water absorption"},
      {"measurement": "half-life at 2 μg/mL", "setting": "[7]", "value": 19.3, "unit": "h"},
      {"measurement": "LD50", "setting": "[4]; intravenous", "value": 1100, "unit": "mg/kg"},
      {"measurement": "Reperfusion/Postoperative (cerebral blood flow recovery)", "setting": "[1]; [8]", "value": "95.6% and 95.3%"},
      {"measurement": "Postoperative/Preoperative (cerebral blood flow)", "setting": "[1]", "value": 15.5, "unit": "%"},
      {"measurement": "Cerebral infarction ratio", "setting": "[6]", "value": 11.8, "unit": "%"},
      {"measurement": "Percentage inhibition of cerebral infarction", "setting": "[6]", "value": 77.4, "unit": "%"}
    ]},
    {"smiles": "CCCCC(O)c1ccccc1C(=O)[O-].[K+]", "note": "(centres unmarked) [Potassium butylphthalide]", "values": [
      {"measurement": "median lethal dose", "setting": "[5]", "value": 373, "unit": "mg"},
      {"measurement": "LD50 (median lethal dose)", "setting": "[5]; injected via tail vein", "value": 373, "unit": "mg/kg"},
      {"measurement": "Cerebral infarction ratio", "setting": "[6]; 3 mg/kg", "value": 37.5, "unit": "%"},
      {"measurement": "Cerebral infarction ratio", "setting": "[6]; listed as potassium butylphthalide, 3 mg/kg", "value": 37.5, "unit": "%"},
      {"measurement": "Percentage inhibition of cerebral infarction", "setting": "[6]; 3 mg/kg", "value": 26.4, "unit": "%"},
      {"measurement": "Percentage inhibition of cerebral infarction", "setting": "[6]; listed as butylphthalide potassium, 3 mg/kg", "value": 26.4, "unit": "%"},
      {"measurement": "t1/2 (elimination half-life)", "setting": "[2]; listed as Potassium Butylphthalide", "value": "<1", "unit": "h"},
      {"measurement": "t1/2 (elimination half-life)", "setting": "[2]; listed as potassium butylphthalide", "value": "less than 1 h"}
    ]}
  ]
}
